# According to patent US9113629B2, “4-amino-6-(4-substituted-phenyl)-picolinates and 6-amino-2-(4-substituted-phenyl)-pyrimidine-4-carboxylates and their use as herbicides” (DOW AGROSCIENCES LLC, priority 2013, dated 2015):
# Where two headings read alike, the source gives them in different places.
# Legend:
# Assay type in all cases: in vivo
# [1] = test system: AMARE: redroot pigwseed (Amaranthus retroflexus); test: Post-emergent Test I herbicidal activity; details: post-emergence, 4.04 kg ai/ha, read-out: Visual Growth Reduction (%), AMARE
# [2] = test system: AVEFA: wild oats (Avena fatua); test: Post-emergent Test I herbicidal activity; details: post-emergence, 336 h, 4.04 kg ai/ha, read-out: Visual Growth Reduction (%) 14 Days After Application, AVEFA
# [3] = test system: ECHCG: barnyardgrass (Echinochloa crus-galli); test: Post-emergent Test I herbicidal activity; details: post-emergence, 336 h, 4.04 kg ai/ha, read-out: Visual Growth Reduction (%) 14 Days After Application, ECHCG
# [4] = test system: HELAN: sunflower (Helianthus annuus); test: Post-emergent Test I herbicidal activity; details: post-emergence, 336 h, 4.04 kg ai/ha, read-out: Visual Growth Reduction (%) 14 Days After Application, HELAN
# [5] = test system: IPOHE: ivyleaf morningglory (Ipomoea hederecea); test: Post-emergent Test I herbicidal activity; details: post-emergence, 336 h, 4.04 kg ai/ha, read-out: Visual Growth Reduction (%) 14 Days After Application, IPOHE
# [6] = test system: SETFA: giant foxtail (Setaria faberi); test: Post-emergent Test I herbicidal activity; details: post-emergence, 336 h, 4.04 kg ai/ha, read-out: Visual Growth Reduction (%) 14 Days After Application, SETFA
# [7] = test system: test plant species in Direct Seeded Rice; test: Postemergence herbicidal activity in direct seeded rice (Table 13); details: for pest or weed control at 35 g/ha / pest or weed control at 70 g/ha: post-emergence, 504 h; for pest or weed control at 35 g/ha: 35 g ai/ha; for pest or weed control at 70 g/ha: 70 g ai/ha
# Outline: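 Greenhouse-grown plants at the second or third true leaf stage were sprayed postemergence at 187 L/ha with compound in acetone/DMSO (final 16.2%/0.5%) plus aqueous Agri-dex crop oil concentrate; controls got solvent blank. Injury was rated visually 0–100% after 20-22 days, and GR20, GR50, GR80 and GR90 derived by probit analysis.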
# [8] = BRAPP: broadleaf signalgrass, Brachiaria platyphylla, probit analysis
# [9] = CYPSS: sedge (Cyperus difformis, esculentus, iria), probit analysis
# [10] = ECHSS: barnyardgrass (Echinochloa crus-galli), junglerice (Echinochloa colonum), probit analysis
# [11] = LEFSS: sprangletop (Leptochloa chinensis, Leptochloa dubia), probit analysis
# [12] = SCPJU: Japanese bulrush, Scirpus juncoides, probit analysis
# [13] = SEBEX: hemp sesbania, Sesbania exaltata, probit analysis
# [14] = BRAPP: broadleaf signalgrass, Brachiaria platyphylla, read-out: Visual Growth Reduction (%) 21 Days After Application BRAPP
# [15] = CYPSS: sedge (Cyperus difformis, esculentus, iria), read-out: Visual Growth Reduction (%) 21 Days After Application CYPSS
# [16] = ECHSS: barnyardgrass (Echinochloa crus-galli), junglerice (Echinochloa colonum), read-out: Visual Growth Reduction (%) 21 Days After Application ECHSS
# [17] = LEFSS: sprangletop (Leptochloa chinensis, Leptochloa dubia), read-out: Visual Growth Reduction (%) 21 Days After Application LEFSS
# [18] = ORYSS: Oryza sativa, read-out: Visual Growth Reduction (%) 21 Days After Application ORYSS
# [19] = SCPJU: Japanese bulrush, Scirpus juncoides, read-out: Visual Growth Reduction (%) 21 Days After Application SCPJU
# [20] = SEBEX: hemp sesbania, Sesbania exaltata, read-out: Visual Growth Reduction (%) 21 Days After Application SEBEX
structure (smiles),measurement,setting,value
"COC(=O)c1nc(-c2ccc(C#N)c(F)c2)c(F)c(N)c1Cl [Compound 135, methyl 4-amino-3-chloro-6-(4-cyano-3-fluorophenyl)-5-fluoropicolinate]",pest or weed control at 4040 g/ha,[1],95 to 100%
same,pest or weed control at 4040 g/ha,[2],60 to 74%
same,pest or weed control at 4040 g/ha,[3],95 to 100%
same,pest or weed control at 4040 g/ha,[4],95 to 100%
same,pest or weed control at 4040 g/ha,[5],85 to 94%
same,pest or weed control at 4040 g/ha,[6],75 to 84%
same,GR50 BRAPP,[7]; [8],4 g ai/ha
same,GR80 BRAPP,[7]; [8],11 g ai/ha
same,GR50 CYPSS,[7]; [9],5 g ai/ha
same,GR80 CYPSS,[7]; [9],49 g ai/ha
same,GR50 ECHSS,[7]; [10],17 g ai/ha
same,GR80 ECHSS,[7]; [10],70 g ai/ha
same,GR50 LEFSS,[7]; [11],57 g ai/ha
same,GR80 LEFSS,[7]; [11],114 g ai/ha
same,GR20 ORYSS,"[7]; ORYSS: Oryza sativa (crop), probit analysis",>70 g ai/ha
same,GR50 SCPJU,[7]; [12],2 g ai/ha
same,GR80 SCPJU,[7]; [12],5 g ai/ha
same,GR50 SEBEX,[7]; [13],1 g ai/ha
same,GR80 SEBEX,[7]; [13],1 g ai/ha
same,pest or weed control at 35 g/ha,[7]; [14],85 to 94%
same,pest or weed control at 70 g/ha,[7]; [14],85 to 94%
same,pest or weed control at 35 g/ha,[7]; [15],75 to 84%
same,pest or weed control at 70 g/ha,[7]; [15],85 to 94%
same,pest or weed control at 35 g/ha,[7]; [16],75 to 84%
same,pest or weed control at 70 g/ha,[7]; [16],75 to 84%
same,pest or weed control at 35 g/ha,[7]; [17],0 to 29%
same,pest or weed control at 70 g/ha,[7]; [17],60 to 74%
same,pest or weed control at 35 g/ha,[7]; [18],0 to 29%
same,pest or weed control at 70 g/ha,[7]; [18],0 to 29%
same,pest or weed control at 35 g/ha,[7]; [19],85 to 94%
same,pest or weed control at 70 g/ha,[7]; [19],95 to 100%
same,pest or weed control at 35 g/ha,[7]; [20],95 to 100%
same,pest or weed control at 70 g/ha,[7]; [20],95 to 100%
